Where two headings read alike, the source gives them in different places.
What was measured:
[1] = UV-VIS absorption and fluorescence emission spectra; type: physicochemical; conditions: 0.1M phosphate buffer (1x PBS for 7d5); ± 1 nm error
Method: All labeled samples were dissolved in water and diluted with 0.1 M phosphate buffer or 1×PBS (for 7d5). Assuming that the labeled bisphosphonates have the same extinction coefficient (E) as the carboxylic acid of the free fluorescent label, the final concentrations for all labeled products were calculated from UV-VIS absorption spectra at λ=493 nm (ε=73000 M^−1 cm^−1 at pH 7.2) for FAM conjugates (7a1-7a3, 7b1, 7c1, 7d1-7d2, 7e1-7e2, 7f1-7f2), λ=567.5 nm (ε=114850 M^−1cm^−1 at pH 7.5) for RhR-X conjugates (7a4, 7b2, 7c2), λ=580 nm (c=72000 M^−1cm^−1 at pH 8.0) for ROX conjugates (7a5, 7b3), λ=648 nm (ε=240000 M^−1cm^−1 at pH 7.2) for AF647 conjugates (7a6, 7b4, 7d3), λ=774 nm (ε=240000 M^−1cm^−1 at pH 7.4) for 800CW conjugates (7d4), λ=644 nm (ε=271000 M^−1cm^−1 at pH 7.4, 1×PBS) for Sulfo-Cy5 conjugates (7d5).
Emission spectra for FAM and RhR-X conjugates were recorded using an excitation wavelength of 490 nm or 520 nm, respectively. Emission spectra for AF647 conjugates and Sulfo-Cy5 conjugates were recorded using an excitation wavelength of 600 nm. Emission spectra of 5(6)-ROX conjugates were recorded using an excitation wavelength of 575 nm. Emission spectra of IRDye CW800 conjugate was recorded using an excitation wavelength of 750 nm. The set-up of excitation slit, emission slit, integration time and increment were determined to get optimal spectra for each compound respectively, depending on the sample concentration and spectrometer used.

[2] = test system: unprenylated Rap1A (uRap1A); experiment: Prenylation assay: Western blot for unprenylated Rap1A in J774.2 macrophages; type: cell-based, mouse; conditions: 10 or 100 μM, 24 h, FIG. 5A-C
Method: To determine the effect of fluorescent BP probes on protein prenylation, J774.2 mouse macrophages were plated out at 2×10^5 cells/mL in 24-well plates and left to adhere overnight. Cells were then treated with 10 or 100 μM of fluorescent analogues of RIS, dRIS, and ZOL, the respective native BP, or vehicle, for 24 h. Cells were lysed in radioimmunoprecipitation buffer, and proteins were separated by sodium dodecyl sulfate polyacrylamide gel electrophoresis and transferred to polyvinyl difluoride membranes by western blotting. Membranes were then incubated with antibodies to the unprenylated form of Rap1A (uRap1A) and the housekeeping protein β-actin, which were detected by incubation with fluorescently-labeled secondary antibodies and scanning of membranes on a LI-COR Infrared Imager. Results shown are representative of 2 independent experiments. The ratio between abundance of unprenylated RaplA and β-actin is indicated for each sample below the blots in FIG. 5.

[3] = assumed the same as the corresponding fluorescent dye, cited from earlier work

Compound | Maximum absorption wavelength (λmax (abs), nm) [1] | Maximum emission wavelength (λmax (em), nm) [1] | accumulation of unprenylated Rap1A (anti-prenylation activity) [2] | Extinction coefficient ([3]; pH 7.2, 0.1M phosphate buffer) | Extinction coefficient ([3]; pH 7.0, 0.1M phosphate buffer) | Extinction coefficient ([3]; pH 8.0, 0.1M phosphate buffer) | Extinction coefficient ([3]; pH 7.5, 0.1M phosphate buffer) | Extinction coefficient ([3]; 1x PBS, pH 7.4)
1-(3-(3-carboxy-4-(6-hydroxy-3-oxo-3H-xanthen-9-yl)benzamido)-2-hydroxypropyl)-3-(2-hydroxy-2,2-diphosphonoethyl)pyridin-1-ium [Compound 5-FAM-RIS] | 493 nm | 521 nm | clearly detectable | 73,000 (pH 7.2) M^−1cm^−1 |  |  |  | 
1-(3-(4-carboxy-3-(6-hydroxy-3-oxo-3H-xanthen-9-yl)benzamido)-2-hydroxypropyl)-3-(2-hydroxy-2,2-diphosphonoethyl)pyridin-1-ium [Compound 6-FAM-RIS] | 493 nm | 517 nm | clearly detectable | 73,000 (pH 7.2) M^−1cm^−1 |  |  |  | 
2-(5-(3-(6-((2-hydroxy-3-(1-(2-hydroxy-2,2-diphosphonoethyl)-1H-imidazol-3-ium-3-yl)propyl)amino)-6-oxohexyl)-3-methyl-5-sulfo-1-(3-sulfopropyl)indolin-2-ylidene)penta-1,3-dien-1-yl)-3,3-dimethyl-5-sulfo-1-(3-sulfopropyl)-3H-indol-1-ium [AF647-ZOL] | 648.5 nm | 666 nm |  |  | 240,000 (pH 7.0) M^−1cm^−1 |  |  | 
16-[2-carboxy-4-({2-hydroxy-3-[4-(2-hydroxy-2,2-diphosphonoethyl)pyridin-1-ium-1-yl]propyl}carbamoyl)phenyl]-3-oxa-9λ^5,23-diazaheptacyclo[17.7.1.1^5,9.0^2,17.0^4,15.0^23,27.0^13,28]octacosa-1(27),2(17),4,9(28), 13,15,18-heptaen-9-ylium [5(6)-ROX-RIS] | 580 nm | 606 nm | shows activity |  |  | 72,000 (pH 8.0) M^−1cm^−1 |  | 
16-[2-carboxy-4-({3-[4-(2-carboxy-2-hydroxy-2-phosphonoethyl)pyridin-1-ium-1-yl]-2-hydroxypropyl}carbamoyl)phenyl]-3-oxa-9λ^5,23-diazaheptacyclo[17.7.1.1^5,9.0^2,17.0^4,15.0^23,27.0^13,28]octacosa-1(27),2(17),4,9(28), 13,15,18-heptaen-9-ylium [5(6)-ROX-RISPC] | 579 nm | 606 nm |  |  |  | 72,000 (pH 8.0) M^−1cm^−1 |  | 
CCN(CC)c1ccc2c(-c3ccc(S(=O)(=O)NCCCCCC(=O)NCC(O)C[n+]4cccc(CC(O)(P(=O)(O)O)P(=O)(O)O)c4)cc3S(=O)(=O)O)c3ccc(=[N+](CC)CC)cc-3oc2c1 (stereo not drawn) [5(6)-RhR-RIS, 1-{3-[6-({4-[6-(diethylamino)-3-(diethylimino)-3H-xanthen-9-yl]-3-sulfobenzene}sulfonamido)hexanamido]-2-hydroxypropyl}-3-(2-hydroxy-2,2-diphosphonoethyl)pyridinium] | 567.5 nm | 589 nm |  |  |  |  | 114,850 (pH 7.5) M^−1cm^−1 | 
CCN(CC)c1ccc2c(-c3ccc(S(=O)(=O)NCCCCCC(=O)NCC(O)C[n+]4cccc(CC(O)(C(=O)O)P(=O)(O)O)c4)cc3S(=O)(=O)O)c3ccc(=[N+](CC)CC)cc-3oc2c1 (stereo not drawn) [5(6)-RhR-RISPC, 3-(2-carboxy-2-hydroxy-2-phosphonoethyl)-1-{3-[6-({4-[6-(diethylamino)-3-(diethylimino)-3H-xanthen-9-yl]-3-sulfobenzene}sulfonamido)hexanamido]-2-hydroxypropyl}pyridinium] | 568 nm | 589 nm |  |  |  |  | 114,850 (pH 7.5) M^−1cm^−1 | 
CCN(CC)c1ccc2c(-c3ccc(S(=O)(=O)NCCCCCC(=O)NCC(O)C[n+]4cccc(CC(P(=O)(O)O)P(=O)(O)O)c4)cc3S(=O)(=O)O)c3ccc(=[N+](CC)CC)cc-3oc2c1 (stereo not drawn) [5(6)-RhR-dRIS, 1-{3-[6-({4-[6-(diethylamino)-3-(diethylimino)-3H-xanthen-9-yl]-3-sulfobenzene}sulfonamido)hexanamido]-2-hydroxypropyl}-3-(2,2-diphosphonoethyl)pyridin-1-ium] | 567.5 nm | 589 nm |  |  |  |  | 114,850 (pH 7.5) M^−1cm^−1 | 
CC1(C)C(C=CC=CC=C2N(CCCS(=O)(=O)O)c3ccc(S(=O)(=O)O)cc3C2(C)CCCCCC(=O)NCC(O)C[n+]2cccc(CC(O)(C(=O)O)P(=O)(O)O)c2)=[N+](CCCS(=O)(=O)O)c2ccc(S(=O)(=O)O)cc21 (stereo not drawn) [AF647-RISPC, 2-(5-(3-(6-((3-(3-(2-carboxy-2-hydroxy-2-phosphonoethyl)pyridin-1-ium-1-yl)-2-hydroxypropyl)amino)-6-oxohexyl)-3-methyl-5-sulfo-1-(3-sulfopropyl)indolin-2-ylidene)penta-1,3-dien-1-yl)-3,3-dimethyl-5-sulfo-1-(3-sulfopropyl)-3H-indol-1-ium] | 648 nm | 666 nm |  |  | 240,000 (pH 7.0) M^−1cm^−1 |  |  | 
O=C(NCC(O)C[n+]1cc(CC(O)(P(=O)(O)O)P(=O)(O)O)n2ccccc21)c1ccc(-c2c3ccc(=O)cc-3oc3cc(O)ccc23)c(C(=O)O)c1 (stereo not drawn) [Compound 5-FAM-MIN, 1-(3-(3-carboxy-4-(6-hydroxy-3-oxo-3H-xanthen-9-yl)benzamido)-2-hydroxypropyl)-3-(2-hydroxy-2,2-diphosphonoethyl)imidazo[1,2-a]pyridin-1-ium] | 493 nm | 522 nm |  | 73,000 (pH 7.2) M^−1cm^−1 |  |  |  | 
O=C(NCC(O)C[n+]1cc(CC(O)(C(=O)O)P(=O)(O)O)n2ccccc21)c1ccc(-c2c3ccc(=O)cc-3oc3cc(O)ccc23)c(C(=O)O)c1 (stereo not drawn) [Compound 5-FAM-MINPC, 3-(2-carboxy-2-hydroxy-2-phosphonoethyl)-1-(3-(3-carboxy-4-(6-hydroxy-3-oxo-3H-xanthen-9-yl)benzamido)-2-hydroxypropyl)imidazo[1,2-a]pyridin-1-ium] | 493 nm | 522 nm |  | 73,000 (pH 7.2) M^−1cm^−1 |  |  |  | 
O=C(NCC(O)C[n+]1cc(CC(O)(P(=O)(O)O)P(=O)(O)O)n2ccccc21)c1ccc(C(=O)O)c(-c2c3ccc(=O)cc-3oc3cc(O)ccc23)c1 (stereo not drawn) [Compound 6-FAM-MIN, 1-(3-(4-carboxy-3-(6-hydroxy-3-oxo-3H-xanthen-9-yl)benzamido)-2-hydroxypropyl)-3-(2-hydroxy-2,2-diphosphonoethyl)imidazo[1,2-a]pyridin-1-ium] | 493 nm | 518 nm |  | 73,000 (pH 7.2) M^−1cm^−1 |  |  |  | 
O=C(NCC(O)C[n+]1cc(CC(O)(C(=O)O)P(=O)(O)O)n2ccccc21)c1ccc(C(=O)O)c(-c2c3ccc(=O)cc-3oc3cc(O)ccc23)c1 (stereo not drawn) [Compound 6-FAM-MINPC, 3-(2-carboxy-2-hydroxy-2-phosphonoethyl)-1-(3-(4-carboxy-3-(6-hydroxy-3-oxo-3H-xanthen-9-yl)benzamido)-2-hydroxypropyl)imidazo[1,2-a]pyridin-1-ium] | 493 nm | 517 nm |  | 73,000 (pH 7.2) M^−1cm^−1 |  |  |  | 
CN1/C(=C/C=C/C=C/C2=[N+](CCCCCC(=O)NCC(O)C[n+]3ccn(CC(O)(P(=O)(O)O)P(=O)(O)O)c3)c3ccc(S(=O)(=O)[O-])cc3C2(C)C)C(C)(C)c2cc(S(=O)(=O)[O-])ccc21 (stereo not drawn) [Sulfo-Cy5-ZOL, 1-(6-((2-hydroxy-3-(1-(2-hydroxy-2,2-diphosphonoethyl)-1H-imidazol-3-ium-3-yl)propyl)amino)-6-oxohexyl)-3,3-dimethyl-2-((1E,3E,5E)-5-(1,3,3-trimethyl-5-sulfonatoindolin-2-ylidene)penta-1,3-dien-1-yl)-3H-indol-1-ium-5-sulfonate] | 644 nm | 663 nm |  |  |  |  |  | 271,000 (1x PBS, pH 7.4) M^−1cm^−1

— patent publication US20180064829A1, “FLUORESCENT BISPHOSPHONATE ANALOGS” (University of Southern California, priority 2015, published 2018)
